Reference: US9227971B2, “Pyrazolo[1,5-a]pyrimidine compounds as mTOR inhibitors” (Merck Sharp & Dohme Corp., priority 2010, dated 2016)

Legend:
[1] = system: phosphorylated 4E-BP1 Thr37/46 (p4E-BP1 Thr37/46), mTORC1 activity, PC3 cells; assay: mTOR target engagement assay, immunofluorescent cell-based, p4E-BP1 Thr37/46 readout (mTORC1 activity); conditions: Homo sapiens, PC-3, PC3 cells, compound treatment ninety minutes at 37° C.; read-out: p4E-BP1 Thr37/46 IC50
Method in brief: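 Seed PC3 cells overnight; treat with compound dilutions for ninety minutes at 37° C; fix with glyoxal and block; stain with anti-p4E-BP1 Thr37/46 overnight at 4° C, then fluorescent secondary; read fluorescence and fit IC50 against DMSO-only controls.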

[2] = system: phosphorylated AKT Ser473 (pAKT S473), mTORC2 activity, PC3 cells; assay: mTOR target engagement assay, immunofluorescent cell-based, pAKT S473 readout (mTORC2 activity); conditions: Homo sapiens, PC-3, PC3 cells, compound treatment ninety minutes at 37° C.
Method in brief: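 After blocking, cells were stained overnight at 4 °C with anti-pAKT S473 antibody, then a fluorescent secondary; inhibition was read as reduced fluorescence intensity.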

| Structure (SMILES) | IC50 [1] [µM] | IC50 [2] [µM] |
| --- | --- | --- |
| CC(=O)c1c([C@@H]2C[C@H]3CC[C@@H](C2)N3C(=O)c2nnc[nH]2)nc2c(-c3cnn(-c4ccccn4)c3)cnn2c1N [Compound 1.1.161, 1-(5-((1R,3s,5S)-8-(4H-1,2,4-triazole-3-carbonyl)-8-azabicyclo[3.2.1]octan-3-yl)-7-amino-3-(1-(pyridin-2-yl)-1H-pyrazol-4-yl)pyrazolo[1,5-a]pyrimidin-6-yl)ethanone] | 0.1 to 1 | 0.1 to 1 |
| CC(=O)c1c([C@@H]2C[C@H]3CC[C@@H](C2)N3C(=O)CO)nc2c(-c3cnn(-c4ccccn4)c3)cnn2c1N [Compound 1.1.162, 1-((1R,3s,5S)-3-(6-acetyl-7-amino-3-(1-(pyridin-2-yl)-1H-pyrazol-4-yl)pyrazolo[1,5-a]pyrimidin-5-yl)-8-azabicyclo[3.2.1]octan-8-yl)-2-hydroxyethanone] | 0.1 to 1 | 0.1 to 1 |
| CC(=O)c1c([C@@H]2C[C@H]3CC[C@@H](C2)N3C(=O)c2nnc[nH]2)nc2c(-c3ccc(-c4ccc(F)cc4)nc3)cnn2c1N [Compound 1.1.163, 1-(5-((1R,3s,5S)-8-(4H-1,2,4-triazole-3-carbonyl)-8-azabicyclo[3.2.1]octan-3-yl)-7-amino-3-(6-(4-fluorophenyl)pyridin-3-yl)pyrazolo[1,5-a]pyrimidin-6-yl)ethanone] | 0.1 to 1 | 0.001 to 0.1 |
| CC(=O)c1c([C@@H]2C[C@H]3CC[C@@H](C2)N3C(=O)CO)nc2c(-c3ccc(-c4ccc(F)cc4F)nc3)cnn2c1N [Compound 1.1.164, 1-((1R,3s,5S)-3-(6-acetyl-7-amino-3-(6-(2,4-difluorophenyl)pyridin-3-yl)pyrazolo[1,5-a]pyrimidin-5-yl)-8-azabicyclo[3.2.1]octan-8-yl)-2-hydroxyethanone] | 0.1 to 1 | 0.001 to 0.1 |
| CC(=O)c1c([C@@H]2C[C@H]3CC[C@@H](C2)N3C(=O)c2nnc(C)[nH]2)nc2c(-c3ccc(-c4ccc(F)cc4F)nc3)cnn2c1N [Compound 1.1.165, 1-(7-amino-3-(6-(2,4-difluorophenyl)pyridin-3-yl)-5-((1R,3s,5S)-8-(5-methyl-4H-1,2,4-triazole-3-carbonyl)-8-azabicyclo[3.2.1]octan-3-yl)pyrazolo[1,5-a]pyrimidin-6-yl)ethanone] | 0.001 to 0.1 | 0.001 to 0.1 |
| CC(=O)c1c([C@@H]2C[C@H]3CC[C@@H](C2)N3C(=O)c2cc(N)n[nH]2)nc2c(-c3ccc(-c4ccc(F)cc4F)nc3)cnn2c1N [Compound 1.1.166, 1-(7-amino-5-((1R,3s,5S)-8-(3-amino-1H-pyrazole-5-carbonyl)-8-azabicyclo[3.2.1]octan-3-yl)-3-(6-(2,4-difluorophenyl)pyridin-3-yl)pyrazolo[1,5-a]pyrimidin-6-yl)ethanone] | 0.001 to 0.1 | 0.001 to 0.1 |
| CC(=O)c1c([C@@H]2C[C@H]3CC[C@@H](C2)N3C(=O)c2ccn[nH]2)nc2c(-c3ccc(-c4ccc(F)cc4F)nc3)cnn2c1N [Compound 1.1.167, 1-(5-((1R,3s,5S)-8-(1H-pyrazole-5-carbonyl)-8-azabicyclo[3.2.1]octan-3-yl)-7-amino-3-(6-(2,4-difluorophenyl)pyridin-3-yl)pyrazolo[1,5-a]pyrimidin-6-yl)ethanone] | 0.1 to 1 | 0.001 to 0.1 |
| CC(=O)c1c([C@@H]2C[C@H]3CC[C@@H](C2)N3C(=O)[C@@H](C)O)nc2c(-c3ccc(-c4ccc(F)cc4F)nc3)cnn2c1N [Compound 1.1.168, (R)-1-((1R,3S,5S)-3-(6-acetyl-7-amino-3-(6-(2,4-difluorophenyl)pyridin-3-yl)pyrazolo[1,5-a]pyrimidin-5-yl)-8-azabicyclo[3.2.1]octan-8-yl)-2-hydroxypropan-1-one] | 0.1 to 1 | 0.1 to 1 |
| CC(=O)c1c([C@@H]2C[C@H]3CC[C@@H](C2)N3C(N)=O)nc2c(-c3ccc(-c4ccc(F)cc4F)nc3)cnn2c1N [Compound 1.1.169, (1R,3s,5S)-3-(6-acetyl-7-amino-3-(6-(2,4-difluorophenyl)pyridin-3-yl)pyrazolo[1,5-a]pyrimidin-5-yl)-8-azabicyclo[3.2.1]octane-8-carboxamide] | 0.001 to 0.1 | 0.001 to 0.1 |
| CC(=O)c1c([C@@H]2C[C@H]3CC[C@@H](C2)N3C(=O)CO)nc2c(-c3ccc(-c4c(F)cccc4F)nc3)cnn2c1N [Compound 1.1.171, 1-((1R,3s,5S)-3-(6-acetyl-7-amino-3-(6-(2,6-difluorophenyl)pyridin-3-yl)pyrazolo[1,5-a]pyrimidin-5-yl)-8-azabicyclo[3.2.1]octan-8-yl)-2-hydroxyethanone] | 0.001 to 0.1 | 0.001 to 0.1 |
| CC(=O)c1c([C@@H]2C[C@H]3CC[C@@H](C2)N3C(=O)CO)nc2c(-c3ccc(-c4ccccc4F)nc3)cnn2c1N [Compound 1.1.172, 1-((1R,3s,5S)-3-(6-acetyl-7-amino-3-(6-(2-fluorophenyl)pyridin-3-yl)pyrazolo[1,5-a]pyrimidin-5-yl)-8-azabicyclo[3.2.1]octan-8-yl)-2-hydroxyethanone] | 0.001 to 0.1 | 0.001 to 0.1 |
| CC(=O)c1c([C@@H]2C[C@H]3CC[C@@H](C2)N3C(=O)c2nnc(C)[nH]2)nc2c(-c3ccc(-c4ccccc4F)nc3)cnn2c1N [Compound 1.1.173, 1-(7-amino-3-(6-(2-fluorophenyl)pyridin-3-yl)-5-((1R,3s,5S)-8-(5-methyl-4H-1,2,4-triazole-3-carbonyl)-8-azabicyclo[3.2.1]octan-3-yl)pyrazolo[1,5-a]pyrimidin-6-yl)ethanone] | 0.001 to 0.1 | 0.001 to 0.1 |
| CC(=O)c1c([C@@H]2C[C@H]3CC[C@@H](C2)N3C(N)=O)nc2c(-c3ccc(-c4ccccc4F)nc3)cnn2c1N [Compound 1.1.174, (1R,3s,5S)-3-(6-acetyl-7-amino-3-(6-(2-fluorophenyl)pyridin-3-yl)pyrazolo[1,5-a]pyrimidin-5-yl)-8-azabicyclo[3.2.1]octane-8-carboxamide] | 0.001 to 0.1 | 0.001 to 0.1 |
| CC(=O)c1c([C@@H]2C[C@H]3CC[C@@H](C2)N3C(N)=O)nc2c(-c3ccc(-c4cnn(C)c4)nc3)cnn2c1N [Compound 1.1.175, (1R,3s,5S)-3-(6-acetyl-7-amino-3-(6-(1-methyl-1H-pyrazolo-4-yl)pyridin-3-yl)pyrazolo[1,5-a]pyrimidin-5-yl)-8-azabicyclo[3.2.1]octane-8-carboxamide] | 0.1 to 1 | 0.001 to 0.1 |
| CC(=O)c1c([C@@H]2C[C@H]3CC[C@@H](C2)N3C(=O)c2cc(N)n[nH]2)nc2c(-c3ccc(-c4cnn(C)c4)nc3)cnn2c1N [Compound 1.1.176, 1-(7-amino-5-((1R,3s,5S)-8-(3-amino-1H-pyrazole-5-carbonyl)-8-azabicyclo[3.2.1]octan-3-yl)-3-(6-(1-methyl-1H-pyrazol-4-yl)pyridin-3-yl)pyrazolo[1,5-a]pyrimidin-6-yl)ethanone] | 0.1 to 1 | 0.1 to 1 |
| CC(=O)c1c([C@@H]2C[C@H]3CC[C@@H](C2)N3C(=O)c2nnc[nH]2)nc2c(-c3ccc(-n4cccn4)nc3)cnn2c1N [Compound 1.1.177, 1-(3-(6-(1H-pyrazol-1-yl)pyridin-3-yl)-5-((1R,3s,5S)-8-(4H-1,2,4-triazole-3-carbonyl)-8-azabicyclo[3.2.1]octan-3-yl)-7-aminopyrazolo[1,5-a]pyrimidin-6-yl)ethanone] | 0.001 to 0.1 | 0.001 to 0.1 |
| CC(=O)c1c([C@@H]2C[C@H]3CC[C@@H](C2)N3C(=O)CO)nc2c(-c3ccc(-n4cccn4)nc3)cnn2c1N [Compound 1.1.178, 1-((1R,3s,5S)-3-(3-(6-(1H-pyrazol-1-yl)pyridin-3-yl)-6-acetyl-7-aminopyrazolo[1,5-a]pyrimidin-5-yl)-8-azabicyclo[3.2.1]octan-8-yl)-2-hydroxyethanone] | 0.1 to 1 | 0.001 to 0.1 |
| CC(=O)c1c([C@@H]2C[C@H]3CC[C@@H](C2)N3C(=O)c2nnc[nH]2)nc2c(-c3cnc(-c4ccccc4)nc3)cnn2c1N [Compound 1.1.179, 1-(5-((1R,3s,5S)-8-(4H-1,2,4-triazole-3-carbonyl)-8-azabicyclo[3.2.1]octan-3-yl)-7-amino-3-(2-phenylpyrimidin-5-yl)pyrazolo[1,5-a]pyrimidin-6-yl)ethanone] | 0.001 to 0.1 | 0.001 to 0.1 |
| CC(=O)c1c([C@@H]2C[C@H]3CC[C@@H](C2)N3C(=O)c2nnc[nH]2)nc2c(-c3cnc(C(C)(C)O)nc3)cnn2c1N [Compound 1.1.180, 1-(5-((1R,3s,5S)-8-(4H-1,2,4-triazole-3-carbonyl)-8-azabicyclo[3.2.1]octan-3-yl)-7-amino-3-(2-(2-hydroxypropan-2-yl)pyrimidin-5-yl)pyrazolo[1,5-a]pyrimidin-6-yl)ethanone] | 0.1 to 1 | 0.1 to 1 |
| CC(=O)c1c([C@@H]2C[C@H]3CC[C@@H](C2)N3C(=O)c2nnc[nH]2)nc2c(-c3cnc(C(C)(C)O)c(Cl)c3)cnn2c1N [Compound 1.1.181, 1-(5-((1R,3s,5S)-8-(4H-1,2,4-triazole-3-carbonyl)-8-azabicyclo[3.2.1]octan-3-yl)-7-amino-3-(5-chloro-6-(2-hydroxypropan-2-yl)pyridin-3-yl)pyrazolo[1,5-a]pyrimidin-6-yl)ethanone] | 0.001 to 0.1 | 0.001 to 0.1 |
| COc1cc(F)cc2cc(-c3cnn4c(N)c(C(C)=O)c([C@@H]5C[C@H]6CC[C@@H](C5)N6C(=O)c5nnc[nH]5)nc34)cnc12 [Compound 1.1.182, 1-(5-((1R,3r,5S)-8-(4H-1,2,4-triazole-3-carbonyl)-8-azabicyclo[3.2.1]octan-3-yl)-7-amino-3-(6-fluoro-8-methoxyquinolin-3-yl)pyrazolo[1,5-a]pyrimidin-6-yl)ethanone] | 0.001 to 0.1 | 0.001 to 0.1 |
